Experimental findings from patent US3932471A, “Azide” (priority 1973, dated 1976) are described below.

What all share (assay type): in vivo
The test system of assay [1] is housefly (Musca domestica). The assay is described as follows: Housefly spray test (HF). Particulars: 72 h, contact activity rating, 50% mortality, three days. On the procedure: (§1) The compounds are evaluated for biological activity against the following representative pests: Mexican bean beetle (Epilachna varivestis), Southern army worm (Prodenia eridania), housefly (Musca domestica), bean aphid (Aphis fabae), and red spider mite (Tetranychus sp.). The last two pests are treated both by contact and systemic application.
(§2) For purposes of comparison, results obtained with known Compound 7472, Compound 7577, and aldicarb are included in the test results. Each test compound is rated using the following scale:
This test determines the insecticidal activity of the compound being tested against adult houseflies, Musca domestica. Stock formulations containing 500 ppm of each test chemical are prepared using the procedure described in Example 15 and are diluted to obtain the appropriate lower concentrations.
Ten adult flies are placed in a cylindrical screen cage 11/2 by 4 inches fabricated from 20-mesh stainless steel screening and are sprayed with 50 ml of the stock or diluted formulation. The flies are supplied food and drink from a dextrose solution by draping a paper wick over the outside of the screen cylinder and are able to feed and drink ad libitum. Percent mortality obtained is determined three days after treatment. Results of this test are shown in Table 7 as HF (housefly spray test).

Assay [2] has as its system Southern army worm (Prodenia eridania). The assay is described as follows: Southern army worm spray test (AW). Particulars: 72 h; contact activity rating, 50% mortality, three days. Here is the method:
as §1, §2
Southern Army Worm Spray Test
Paired fully expanded primary leaves excised from Scarlet runner bean plants are maintained in plastic tubes containing water and sprayed with the test formulation prepared as described in Example 15. After the spray deposit on the leaves is dry, the paired leaves are separated. One leaf is placed onto 1.5 percent water agar and infested with 10 newly hatched Southern army worm larvae. The covered test receptacle is held at 72° F for three days and then the percent mortality is determined. Results of this test are shown in Table 7 as AW (Southern army worm spray test).

The subject of assay [3] is root-knot nematodes (Meloidogyne spp.). The assay can be described thus: Root-knot nematocide test. On the procedure:
Root-knot Nematocide Test
This test is an evaluation of the effectiveness of the compound being tested against infection by root-knot nematodes (Meloidogyne spp.).
Composted greenhouse soil, diluted by one-third with clean washed sand, is infected with about two grams of knotted or galled tomato roots per pot. Treatment is accomplished by applying 25 ml of the formulated compound onto the infested soil. The formulation contains 0.056 g of Compound 7960, 1.0 ml stock emulsifier solution (0.25% Triton X-155 in acetone by volume), and 24.0 ml deionized water, giving a concentration of 2240 ppm. Lower concentrations are achieved by dilution.
After treatment with the test formulation, the soil, inoculum, and formulation are thoroughly mixed, returned to the pot, and the mixture incubated for seven days at 20° C and constant moisture. After incubation, two seedlings of Rutgers tomato transplants and three garden nasturtium (Nasturtium spp.) seeds are set in each pot. Roots are removed from the soil after three weeks of growth and rated for gall (root-knot nematode infection) formation. Nasturtium roots are evaluated only when necrosis of the tomato host has occurred. […] Each of the root systems is rated separately and the average is multiplied by 10 and subtracted from 100 to give percent nematode control.

In brackets after ≈: the same amount, converted by molar mass.

As to `CNC(=O)ON=C(CSC)C(C)C` [Compound 7867, 3-methyl-2-methylcarbamyloximino-1-methylthiobutane], the figures for the LC50 in assay [1] and in assay [2] were 64 to 128 µg/mL (≈ 313 to 627 µM) and over 500 µg/mL, respectively.
Turning to `CNC(=O)ON=C(CCSC)C(C)(C)C` [Compound 8111, 4,4-dimethyl-3-methylcarbamyloximino-1-methylthiopentane], the values for the LC50 in assay [1] and in assay [2] were 250 to 500 µg/mL (≈ 1080 to 2150 µM) and over 500 µg/mL, respectively.
Regarding `CNC(=O)ON=C(CS(C)(=O)=O)C(C)(C)C` [Compound 8868, 3,3-dimethyl-2-methylcarbamyloximino-1-methylsulfonylbutane], the LC50 was 128 to 250 µg/mL (≈ 511 to 999 µM) in assay [1] and over 500 µg/mL in assay [2].
For `CNC(=O)ON=C(C)C(C)(C)SC` [Compound 7577, 3-methyl-2-methylcarbamyloximino-3-methylthiobutane, reference compound], the LC50 in assay [1] and in assay [2] was over 500 µg/mL throughout.
Regarding `CNC(=O)ON=C(CSC)CC(C)C` [Compound 9058, 4-methyl-2-methylcarbamyloximino-1-methylthiopentane], the figures for the LC50 in assay [1] and in assay [2] were 250 to 500 µg/mL (≈ 1150 to 2290 µM) and over 500 µg/mL, respectively.
The like results for `CNC(=O)ON=C(CSC)CC(C)(C)C` [Compound 8519, 4,4-dimethyl-2-methylcarbamyloximino-1-methylthiopentane] were, in that order, over 500 µg/mL and over 500 µg/mL.
`CNC(=O)ON=C(CSC)C(C)(C)SC` [Compound 7960, 1,3-bis(methylthio)-3-methyl-2-methylcarbamyloximinobutane]: the LC50 in assay [1] and in assay [2] was over 500 µg/mL throughout. The “Percent Control (nematode)” value in assay [3] (0.5 lb/A) stood at 97%; in assay [3] (1 lb/A), 100%; in assay [3] (2 lb/A), 100%; in assay [3] (4 lb/A), 100%; in assay [3] (8 lb/A) it was 100%.
Regarding `CNC(=O)ON=C(CSCCSC)C(C)(C)C` [Compound 9026, 3,3-dimethyl-2-methylcarbamyloximino-1-(2-methylthioethylthio)-butane], the 50% lethal concentration (LC50) in assay [1] and in assay [2] was over 500 µg/mL in each case. Further, the “Percent Control (nematode)” value in assay [3] (1 lb/A) is given as 30%; in assay [3] (2 lb/A), 60%; in assay [3] (4 lb/A), 70%; in assay [3] (8 lb/A), 90%.
Regarding `CNC(=O)O/N=C/C(C)(C)SC` [aldicarb, reference compound], the LC50 is 4 to 8 µg/mL (≈ 21 to 42 µM) in assay [1] and over 500 µg/mL in assay [2].
With `CCC(C)(C)C(CSC)=NOC(=O)NC` [Compound 8520, 3,3-dimethyl-2-methylcarbamyloximino-1-methylthiopentane], the LC50 in assay [1] and in assay [2] was over 500 µg/mL each time.
In the case of `CNC(=O)ON=C(CN=[N+]=[N-])C(C)(C)C` [Compound 8997, 1-azido-3,3-dimethyl-2-methylcarbamyloximinobutane], the LC50 in assay [1] and in assay [2] was 128 to 250 µg/mL (≈ 600 to 1170 µM) each time. The “Percent Control (nematode)” value in assay [3] (2 lb/A) came to 0%; in assay [3] (4 lb/A), 100%; in assay [3] (8 lb/A), 100%.
For the compound `CNC(=O)ON=C(CSCC(=O)OC)C(C)(C)C` [Compound 7503, 1-carbomethoxymethylthio-3,3-dimethyl-2-methylcarbamyloximinobutane], the LC50 in assay [1] and in assay [2] was over 500 µg/mL each time.
As to `CSCC(=NOC(=O)N(C)C)C(C)(C)C` [Compound 7871, 3,3-dimethyl-2-dimethylcarbamyloximino-1-methylthiobutane], the LC50 in assay [1] and in assay [2] was over 500 µg/mL throughout.
Regarding `C=CCNC(=O)ON=C(CSC)C(C)(C)C` [Compound 7799, 2-allylcarbamyloximino-3,3-dimethyl-1-methylthiobutane], the LC50 in assay [1] is 128 to 250 µg/mL (≈ 524 to 1020 µM); in assay [2] it was over 500 µg/mL.
The like results for `CNC(=O)ON=C(C)CSC` [Compound 7603, 2-methylcarbamyloximino-1-methylthiopropane] were, in that order, 16 to 32 µg/mL (≈ 90.8 to 182 µM) and over 500 µg/mL.
For the compound `C=CCSCC(=NOC(=O)NC)C(C)(C)C` [Compound 7897, 1-allylthio-3,3-dimethyl-2-methylcarbamyloximinobutane], the 50% lethal concentration (LC50) in assay [1] was 64 to 128 µg/mL (≈ 262 to 524 µM); in assay [2], over 500 µg/mL.
With `CCCC(C)(C)C(CSC)=NOC(=O)NC` [Compound 7934, 3,3-dimethyl-2-methylcarbamyloximino-1-methylthiohexane], the LC50 in assay [1] and in assay [2] was over 500 µg/mL each time.
Turning to `CCCC(CSC)=NOC(=O)NC` [Compound 9057, 2-methylcarbamyloximino-1-methylthiopentane], the LC50 in assay [1] is 250 to 500 µg/mL (≈ 1220 to 2450 µM); in assay [2], over 500 µg/mL.
On to `CNC(=O)ON=C(C[S+](C)[O-])C(C)(C)C` (centres unmarked) [Compound 7804, 3,3-dimethyl-2-methylcarbamyloximino-1-methylsulfinylbutane], for which the LC50 in assay [1] and in assay [2] was 128 to 250 µg/mL (≈ 546 to 1070 µM) throughout.
Consider `CNC(=O)ON=C(CSC#N)C(C)(C)C` [Compound 7991, 3,3-dimethyl-2-methylcarbamyloximino-1-thiocyanatobutane], for which the LC50 in assay [1] and in assay [2] was over 500 µg/mL in each case.
As to `CCNC(=O)ON=C(CSC)C(C)(C)C` [Compound 7797, 2-ethylcarbamyloximino-3,3-dimethyl-1-methylthiobutane], the 50% lethal concentration (LC50) in assay [1] was 64 to 128 µg/mL (≈ 275 to 551 µM); in assay [2], over 500 µg/mL.
As for `CNC(=O)ON=C(C1SCCS1)C(C)(C)C` [Compound 8423, 1,1-ethylenedithio-3,3-dimethyl-2-methylcarbamyloximinobutane], the “Percent Control (nematode)” value in assay [3] (2 lb/A) is 60%; in assay [3] (4 lb/A), 90%; in assay [3] (8 lb/A), 100%.
Turning to `CNC(=O)ON=C(CSC)C1CC1` [Compound 8465, 1-cyclopropyl-1-methylcarbamyloximino-2-methylthioethane], the LC50 in assay [1] was 128 to 250 µg/mL (≈ 633 to 1240 µM); in assay [2] it was 250 to 500 µg/mL (≈ 1240 to 2470 µM).
On to `CNC(=O)ON=C(C(C)SC)C(C)(C)C` (centres unmarked) [Compound 8071, 2,2-dimethyl-3-methylcarbamyloximino-4-methylthiopentane], for which the LC50 in assay [1] and in assay [2] was over 500 µg/mL each time.
Take `CNC(=O)ON=C(CSc1ccccc1)C(C)(C)C` [Compound 7718, 3,3-dimethyl-2-methylcarbamyloximino-1-phenylthiobutane]: the LC50 in assay [1] was 250 to 500 µg/mL (≈ 892 to 1780 µM); in assay [2], over 500 µg/mL.
The like results for `CCSCC(=NOC(=O)NC)C(C)(C)C` [Compound 7862, 1-ethylthio-3,3-dimethyl-2-methylcarbamyloximinobutane] were, in that order, 64 to 128 µg/mL (≈ 275 to 551 µM) and over 500 µg/mL.
On to `CCC(CSC)=NOC(=O)NC` [Compound 7916, 2-methylcarbamyloximino-1-methylthiobutane], for which the LC50 in assay [1] is 64 to 128 µg/mL (≈ 336 to 673 µM); in assay [2], over 500 µg/mL.
In the case of `CNC(=O)ON=C(C)C(C)(C)C` [Compound 7472, 2,2-dimethyl-3-methylcarbamyloximinobutane, reference compound], the LC50 in assay [1] and in assay [2] was over 500 µg/mL throughout.
Regarding `CSCC(=NOC(N)=O)C(C)(C)C` [Compound 7859, 2-carbamyloximino-3,3-dimethyl-1-methylthiobutane], the LC50 in assay [1] and in assay [2] was over 500 µg/mL in each case.
